Reference: patent publication US9834525B2, “Inhibitors of paxillin function and related compositions and methods” (UNIVERSITY OF TENNESSEE RESEARCH FOUNDATION, priority 2015, dated 2017)

Legend:
Format in all cases: cell-based, human
AKT (Ser473) = assay: Western blot of VEGF-induced AKT phosphorylation in REC; conditions: REC under VEGF; compound (II-4) 500 nM, SU6656 1 μM
Procedure: (§1) REC, Mel 270, OMM 2.5 under Hepatocyte Growth Factor (HGF) or Vascular Endothelial Growth Factor (VEGF) stimulation conditions: Cell lysates were collected in RIPA lysis buffer (50 mM Tris-HCl, pH 7.4, 150 mM NaCl, 2 mM EDTA, 1% Nonidet P-40, 0.1% SDS) with protease 1× inhibitor cocktail (Roche; Indianapolis, Ind.). Lysates were kept on ice and centrifuged at 10,000×g×10 minutes and total protein was measured using the BCA assay (Pierce, Rockford, Ill.). Protein samples were mixed with 4×LDS loading buffer with 2.5% 2-mercaptoethanol (Sigma-Aldrich), heated to 70° C. for 10 minutes, and loaded on NuPAGE 4-12% Bis-Tris gel (Invitrogen, Carlsbad, Calif.). Immunoblotting was performed with nitrocellulose membranes (Bio-Rad, Hercules, Calif.) at 170-mA start and 110-mA end at 25 V for two hours in NuPAGE transfer buffer (Invitrogen) containing 20% methanol. Membranes were blocked using Odyssey blocking buffer (LI-COR; Lincoln, Nebr.) for one hour at room temperature with gentle shaking Membranes were then incubated at 4° C. with specific primary antibodies (1:1000) overnight. Cellular protein was normalized using rabbit-GAPDH or mouse-α-Tubulin [1:20,000] (Cell Signaling, Danvers, Mass.; LI-COR, respectively). […] Dual-channel infrared scan and quantitation of immunoblots were conducted using the ODYSSEY Sa infrared imaging system with Image Studio (Ver. 3.1.4) (LI-COR). […]

[1] = test system: retinal endothelial cells (REC); assay: VEGF-induced REC proliferation, WST-1 metabolic assay; conditions: Compound (II-4) (500 nM), LY294002 (1004), SU6656 (104), U0126 (104) [sic]
Procedure: To investigate the potential of compound (II-4) affecting the proliferative capacity of RECs treated with VEGF, proliferation was measured using the metabolic assay based on the tetrazolium salt, WST-1. […] To rule out the possibility that this observation was related to cytotoxicity, RECs were incubated with a high concentration of compound (II-4) (1 μM) for 24 hours. Cells were harvested and apoptosis measured with Annexin-V/Propidium Iodide (PI) staining and analyzed using flow cytometry.
FIG. 18: REC Proliferation and Flow cytometry analysis of apoptosis in REC. A) VEGF-induced cellular proliferation was assessed using the WST-1 metabolic assay. […] (*P<0.0001). Nuclei were stained with DRAQ5 and imaged to show trend of decreasing proliferation. B) Apoptosis was measured using Annexin V/PI staining Compound (II-4) (1 μM) appears to be non-cytotoxic to retinal endothelial cells after 24 hour incubation (n≈10,000 cells).
FIG. 21: REC Proliferation. […] (*, # P<0.001; Mean±SD, N=8/group).

paxillin (pY118) = assay: Western blot of VEGF-induced paxillin Y118 phosphorylation in REC; conditions: REC under VEGF; compound (II-4) 500 nM, SU6656 1 μM
Procedure: REC, Mel 270, OMM 2.5 under Hepatocyte Growth Factor (HGF) or Vascular Endothelial Growth Factor (VEGF) stimulation conditions: Cell lysates were collected in RIPA lysis buffer (50 mM Tris-HCl, pH 7.4, 150 mM NaCl, 2 mM EDTA, 1% Nonidet P-40, 0.1% SDS) with protease 1× inhibitor cocktail (Roche; Indianapolis, Ind.). Lysates were kept on ice and centrifuged at 10,000×g×10 minutes and total protein was measured using the BCA assay (Pierce, Rockford, Ill.). Protein samples were mixed with 4×LDS loading buffer with 2.5% 2-mercaptoethanol (Sigma-Aldrich), heated to 70° C. for 10 minutes, and loaded on NuPAGE 4-12% Bis-Tris gel (Invitrogen, Carlsbad, Calif.). Immunoblotting was performed with nitrocellulose membranes (Bio-Rad, Hercules, Calif.) at 170-mA start and 110-mA end at 25 V for two hours in NuPAGE transfer buffer (Invitrogen) containing 20% methanol. Membranes were blocked using Odyssey blocking buffer (LI-COR; Lincoln, Nebr.) for one hour at room temperature with gentle shaking Membranes were then incubated at 4° C. with specific primary antibodies (1:1000) overnight. Cellular protein was normalized using rabbit-GAPDH or mouse-α-Tubulin [1:20,000] (Cell Signaling, Danvers, Mass.; LI-COR, respectively). Secondary antibodies (IRDye 800CW goat anti-rabbit and IRDye 680LT goat anti-mouse) [1:10,000] were incubated in the dark at room temperature for 45 minutes. Dual-channel infrared scan and quantitation of immunoblots were conducted using the ODYSSEY Sa infrared imaging system with Image Studio (Ver. 3.1.4) (LI-COR).
The α4 subunit of the cytoplasmic tail of VLA-4 interacts with the cytoskeletal adaptor paxillin, merging intracellular signaling events that drive cellular proliferation and migration (FIG. 13). Compound (II-4) inhibits phosphorylation of paxillin at Y118 (pY118) in the LD-region that interacts with the α4 subunit of VLA-4. To confirm the inhibition of pY118 of paxillin after use of compound (II-4) retinal endothelial cells (REC) were activated with Vascular Endothelial Growth Factor (VEGF) at 50 ng/mL in the presence or absence (vehicle) of compound (II-4) at a concentration of […] for 4-hrs. […] VEGF-induced pY118 was prevented by treatment with compound (II-4) [VEGF-REC treatment versus untreated, *p<0.005; VEGF-induced versus compound (II-4) treatment, **p<0.05—FIG. 13C].
To gain insight into the mechanistic basis for this phenotype, the effect of compound (II-4) on the Src/FAK/paxillin/ERK signalsome in RECs under VEGF was examined. […] Next, characterization of the potential of compound (II-4) to affect FA disassembly through inactivation of ERK was explored. […]
FIG. 13: Targeting the alpha-4 subunit of VLA-4 signaling through inhibition of paxillin. […] Phosphorylation measured by Western Blot. […]

[2] = test system: FAK (Y397, Y576/577, Y925); assay: Western blot of VEGF-induced FAK phosphorylation in REC; conditions: REC under VEGF; compound (II-4) 500 nM, SU6656 1 μM
Procedure: as §1

ERK1/2 = assay: Western blot of VEGF-induced ERK1/2 phosphorylation in REC; conditions: REC under VEGF; compound (II-4) 500 nM, SU6656 1 μM
Procedure: as §1

SMILES | VEGF-induced activation of AKT (P-AKT Ser473) (AKT (Ser473)) | VEGF-induced REC proliferation (FIG. 21) [1] | VEGF-induced PaxY118 phosphorylation (FIG. 20) (paxillin (pY118)) | VEGF-induced FAK activation (Y397, Y925) [2] | VEGF-dependent ERK1/2 phosphorylation (ERK1/2)
CN(C)S(=O)(=O)c1ccc2c(c1)/C(=C/c1cc3c([nH]1)CCCC3)C(=O)N2 [SU6656, reference compound] | inhibited | inhibited | inhibited | inhibited | Neither SU6656 nor compound (II-4) decreased
N#CC(=C(/N)Sc1ccccc1N)/C(C#N)=C(\N)Sc1ccccc1N [U0126, reference compound] |  | VEGF-induced REC proliferation was inhibited | no change in activation of Y118 |  | 
